Measured values from patent US11707500B2, “Growth promoting peptides, and uses thereof” (NURITAS LIMITED, priority 2015, dated 2023).

Test system: Human Dermal Fibroblasts (HDF)
Experiment: BrdU cell proliferation assay
Format: cell-based
Settings: text on FIGS. 1-100; incubated with synthetic peptide 24 h; vs untreated control

## KTLDYWPSLR [SEQ ID NO: 479]
  increase in HDF cell proliferation: 106%

## TVFNGVLRPGQLL [SEQ ID NO: 270]
  increase in HDF cell proliferation: 47%

## DEEEEQGEEEINK [SEQ ID NO: 74]
  increase in HDF cell proliferation: 29%

## LQQAPPPPQR [SEQ ID NO: 453]
  increase in HDF cell proliferation: 25%

## LVIPVNGPGKFE [SEQ ID NO: 97]
  increase in HDF cell proliferation: 26%

## IFEDAITIPGR [SEQ ID NO: 477]
  increase in HDF cell proliferation: 81%

## VIPVNGPGK [SEQ ID NO: 124]
  increase in HDF cell proliferation: 15%

## RSQNIF [SEQ ID NO: 502]
  increase in HDF cell proliferation: 68%

## NGVLRPGQL [SEQ ID NO: 272]
  increase in HDF cell proliferation: 97%

## YLRGFS [SEQ ID NO: 503]
  increase in HDF cell proliferation: 125%

## RHGEWGPSY [SEQ ID NO: 480]
  increase in HDF cell proliferation: 102%

## GALMLPHYN [SEQ ID NO: 504]
  increase in HDF cell proliferation: 119%

## IDGYDTPVEGR [SEQ ID NO: 222]
  increase in HDF cell proliferation: 110%

## PHMPS [SEQ ID NO: 471]
  increase in HDF cell proliferation: 38%

## SEEGYYGEQQQQPGMTR [SEQ ID NO: 253]
  increase in HDF cell proliferation: 112%

## LVSHPIAAHEGR [SEQ ID NO: 482]
  increase in HDF cell proliferation: 113%

## WMK (WMKA) [SEQ ID NO: 473]
  increase in HDF cell proliferation: 41%

## PRRF [SEQ ID NO: 472]
  increase in HDF cell proliferation: 77%

## VVIIPAGHPVAITASSNLNLLGFG [SEQ ID NO: 112]
  increase in HDF cell proliferation: 15%

## VIPAGHPVAVR [SEQ ID NO: 330]
  increase in HDF cell proliferation: 18%

## EEGYYGEQQQQPGMTR [SEQ ID NO: 249]
  increase in HDF cell proliferation: 30%

## GAFTPLQYKSYQD [SEQ ID NO: 359]
  increase in HDF cell proliferation: 15%

## LGAPDVGHPM [SEQ ID NO: 403]
  increase in HDF cell proliferation: 51%

## PNSM [SEQ ID NO: 499]
  increase in HDF cell proliferation: 113%

## LVIPVNGPGKFEA [SEQ ID NO: 98]
  increase in HDF cell proliferation: 49%

## LEPDNR [SEQ ID NO: 485]
  increase in HDF cell proliferation: 81%

## FWM (FWMA) [SEQ ID NO: 457]
  increase in HDF cell proliferation: 114%

## DSINALEPDHR [SEQ ID NO: 474]
  increase in HDF cell proliferation: 121%

## YPQLQDLDL [SEQ ID NO: 114]
  increase in HDF cell proliferation: 119%

## PHMP [SEQ ID NO: 470]
  increase in HDF cell proliferation: 119%

## YRELGAPDVGHPMSE [SEQ ID NO: 410]
  increase in HDF cell proliferation: 73%

## HMPSS [SEQ ID NO: 460]
  increase in HDF cell proliferation: 38%

## LVIPVNGPGKF [SEQ ID NO: 105]
  increase in HDF cell proliferation: 40%

## GYYGEQQQQPGMTR [SEQ ID NO: 248]
  increase in HDF cell proliferation: 86%

## SRGPIYSNE [SEQ ID NO: 83]
  increase in HDF cell proliferation: 32%

## RHGEWRPSY [SEQ ID NO: 146]
  increase in HDF cell proliferation: 80%

## SSEEGYYGEQQQQPGMTR [SEQ ID NO: 252]
  increase in HDF cell proliferation: 111%

## YGEQQQQPGMTR [SEQ ID NO: 256]
  increase in HDF cell proliferation: 117%

## IEKILLEE [SEQ ID NO: 337]
  increase in HDF cell proliferation: 8%

## GAFTPLQYK [SEQ ID NO: 365]
  increase in HDF cell proliferation: 58%

## HRRS [SEQ ID NO: 462]
  increase in HDF cell proliferation: 15%

## EVEERSQNIF [SEQ ID NO: 341]
  increase in HDF cell proliferation: 83%

## HSPR [SEQ ID NO: 463]
  increase in HDF cell proliferation: 100%

## DDEEEEQGEEEINK [SEQ ID NO: 85]
  increase in HDF cell proliferation: 35%
